Data published in EP2165709B1, “Pharmaceutical compositions comprising a lysine based compound and an HIV antiviral or antiretroviral agent” (Ambrilia Biopharma Inc., priority 2004, dated 2006).
Like-named read-outs stand apart in the source and are kept apart here.

Columns and labels:
[1] = Bioavailability: plasma concentration after oral administration to rats; type: in vivo, male Sprague-Dawley rats; settings: rat; for Cmax / Tmax: male, Sprague-Dawley, plasma, vehicle Mix; for Cmax / Tmax / AUC / delivery of PL-100 and PL-337 compared to non-aqueous formulations of PL-100 and PL-337: 50 mg/Kg po; for delivery of PL-100 and PL-337 compared to non-aqueous formulations of PL-100 and PL-337: aqueous dosing; for administered compound detected in the blood samples: po, delivered as aqueous solutions, suggests rapid metabolism to parent drugs
Method: To assess the extent of in vivo cleavage of the phosphate group from the putative compounds, PL-100, PL-462 (based on PL-100), PL-337 and PL-515 (based on PL-337) compounds were administered po (50 mg/kg) to male Sprague-Dawley rats and their plasma concentration measured at different time intervals post-administration. All test articles (PL-100, PL-462, PL-337 and PL-515) were prepared in different vehicle at the final concentration of 25 mg/mL. The vehicle composition is as follows: (1) 20% ethanol; 50% propylene glycol; 0.05% w/v Tween 20 and water (Mix); (2) PBS buffer (PBS). Test articles were administered to male Sprague-Dawley rats at a single oral dose of 50 mg/kg. Each article was tested in three rats. Blood samples (0.2-0.3 mL) were collected at the post-dose time of 10, 20, 40, 60,120, 180 and 360 minutes. The harvested blood was centrifuged to isolate plasma. The resulting plasma was separated and stored at -70°C. Plasma samples together with standards and quality control samples were treated to precipitate proteins, then analyzed by HPLC-MS, for the presence of PL-462, PL-100, PL-515 and PL-337.

[2] = Partition coefficient (LogP), octanol / phosphate buffer pH 7.4; type: physicochemical; settings: octanol and phosphate buffer pH 7.4 (0.04 M KHPO4), LC-MS detection
Source text: The concentration of the compounds in the phases was detected by LC-MS.

[3] = vehicle Mix (20% ethanol; 50% propylene glycol; 0.05% w/v Tween 20 and water)
[4] = vehicle PBS, parent drug (PL-100 or PL-337) detected in plasma

Row | Cmax [1] [nM] | Tmax [1] [min] | AUC [1, 3] [µg/hr*ml] | logP ([2]; read-out: LogP) | delivery of PL-100 and PL-337 compared to non-aqueous formulations of PL-100 and PL-337 [1] | administered compound detected in the blood samples [1] | logP [2] | SMILES | AUC [1, 4]
1 | 498 ± 203 | 40 | 0.675 ± 0.171 | 3.6 |  |  |  | COC(=O)N[C@H](C(=O)NCCCC[C@@H](CO)N(CC(C)C)S(=O)(=O)c1ccc(N)cc1)C(c1ccccc1)c1ccccc1 [PL-100, (1S,5S)-(1-{5-[(4-amino-benzenesulfonyl)-isobutyl-amino]-6-hydroxy-hexylcarbamoyl}-2,2-diphenyl-ethyl)-carbamic acid methyl ester] | 
2 | 681 ± 131 | 60 | 1.180 ± 0.196 |  |  |  |  | COC(=O)N[C@H](C(=O)NCCCC[C@@H](CO)N(CC(C)C)S(=O)(=O)c1ccc(N)c(F)c1)C(c1ccccc1)c1ccccc1 [PL-337, (1-{5-[(4-amino-3-fluoro-benzenesulfonyl)-isobutyl-amino]-6-hydroxy-hexylcarbamoyl}-2,2-diphenyl-ethyl)-carbamic acid methyl ester] | 
3 |  |  |  | -1.2 |  |  |  | COC(=O)N[C@H](C(=O)NCCCC[C@@H](COP(=O)(O)O)N(CC(C)C)S(=O)(=O)c1ccc(N)cc1)C(c1ccccc1)c1ccccc1 [PL-461, (1S,5S)-(1-{5-[(4-amino-benzenesulfonyl)-isobutyl-amino]-6-phosphonooxy-hexylcarbamoyl}-2,2-diphenyl-ethyl)-carbamic acid methyl ester] | 
4 |  |  |  |  | equivalent to slightly superior | None | -1.2 | COC(=O)N[C@H](C(=O)NCCCC[C@@H](COP(=O)(O)O)N(CC(C)C)S(=O)(=O)c1ccc(N)cc1)C(c1ccccc1)c1ccccc1.[Na] [PL-462, (1S,5S)-(1-{5-[(4-amino-benzenesulfonyl)-isobutyl-amino]-6-phosphonooxy-hexylcarbamoyl}-2,2-diphenyl-ethyl)-carbamic acid methyl ester sodium salt] | 0.816 ± 0.295 (PL-100, detected) µg/hr*ml
5 |  |  |  | -0.75 | equivalent to slightly superior | None |  | COC(=O)N[C@H](C(=O)NCCCC[C@@H](COP(=O)(O)O)N(CC(C)C)S(=O)(=O)c1ccc(N)c(F)c1)C(c1ccccc1)c1ccccc1 [PL-515, (1S,5S)-(1-{5-[(4-amino-3-fluoro-benzenesulfonyl)-isobutyl-amino]-6-phosphonooxy-hexylcarbamoyl}-2,2-diphenyl-ethyl)-carbamic acid methyl ester] | 1.075 ± 0.625 (PL-337, detected) µg/hr*ml
